In ChEMBL document CHEMBL3792312, “Synthesis and docking studies of pyrazine-thiazolidinone hybrid scaffold targeting dormant tuberculosis” (Bioorg Med Chem Lett, 2016):
Values after ≈ are worked out from the molar mass of the structure shown.

What was measured:
Bacillus subtilis [1] = assay: Antibacterial activity against Bacillus subtilis at 30 ug after 12 hrs; format: functional
[2] = test system: Mycolicibacterium smegmatis; assay: Antitubercular activity against dormant Mycobacterium smegmatis MC2 155 at 30 ug after 12 days by XTT-Menadione assay; format: functional, str. MC2 155
Staphylococcus aureus [3] = assay: Antibacterial activity against Staphylococcus aureus at 30 ug after 12 hrs; format: functional
[4] = test system: Mycobacterium tuberculosis; assay: Antitubercular activity against dormant Mycobacterium tuberculosis H37Ra after 12 days by XTT-Menadione assay; format: functional, organism-based; conditions: 288 h
Bacillus subtilis [5] = assay: Antibacterial activity against Bacillus subtilis at 10 ug after 12 hrs; format: functional
Pseudomonas fluorescens [6] = assay: Antibacterial activity against Pseudomonas fluorescens at 3 ug after 8 hrs; format: functional
Escherichia coli [7] = assay: Antibacterial activity against Escherichia coli at 30 ug after 8 hrs; format: functional
[8] = Cytotoxicity against human THP1 cells after 5 days by MTT assay; format: cell-based, THP-1; conditions: for IC50: Homo sapiens, THP-1, 120 h; for MCC at 120 h: human, THP1 cells, read-out: MIC
Escherichia coli [9] = assay: Antibacterial activity against Escherichia coli at 10 ug after 8 hrs; format: functional
Staphylococcus aureus [10] = assay: Antibacterial activity against Staphylococcus aureus at 3 ug after 12 hrs; format: functional
Escherichia coli [11] = assay: Antibacterial activity against Escherichia coli at 3 ug after 8 hrs; format: functional
Bacillus subtilis [12] = assay: Antibacterial activity against Bacillus subtilis at 3 ug after 12 hrs; format: functional
[13] = test system: Mycobacterium tuberculosis; assay: Antitubercular activity against dormant Mycobacterium tuberculosis H37Ra at 30 ug after 12 days by XTT-Menadione assay; format: functional
[14] = test system: Mycobacterium tuberculosis; assay: Antitubercular activity against dormant Mycobacterium tuberculosis H37Ra at 10 ug after 12 days by XTT-Menadione assay; format: functional
[15] = Cytotoxicity against human PANC1 cells after 5 days by MTT assay; format: cell-based, PANC-1; conditions: for IC50: Homo sapiens, PANC-1, 120 h; for MCC at 120 h: human, PANC1 cells, read-out: MIC
Pseudomonas fluorescens [16] = assay: Antibacterial activity against Pseudomonas fluorescens at 10 ug after 8 hrs; format: functional
[17] = test system: Mycolicibacterium smegmatis; assay: Antitubercular activity against dormant Mycobacterium smegmatis MC2 155 at 10 ug after 12 days by XTT-Menadione assay; format: functional, str. MC2 155
[18] = (§1) Cytotoxicity against human MCF7 cells after 4 days by MTT assay; format: cell-based; conditions: human, MCF7 cells; read-out: MIC
MCF7 = assay: as §1; format: cell-based; conditions: Homo sapiens, MCF7, 96 h
Staphylococcus aureus [19] = assay: Antibacterial activity against Staphylococcus aureus at 10 ug after 12 hrs; format: functional
[20] = test system: Mycolicibacterium smegmatis; assay: Antitubercular activity against dormant Mycobacterium smegmatis MC2 155 at 3 ug after 12 days by XTT-Menadione assay; format: functional, str. MC2 155
[21] = test system: Mycobacterium tuberculosis; assay: Antitubercular activity against dormant Mycobacterium tuberculosis H37Ra at 3 ug after 12 days by XTT-Menadione assay; format: functional
Pseudomonas fluorescens [22] = assay: Antibacterial activity against Pseudomonas fluorescens at 30 ug after 8 hrs; format: functional
[23] = (§2) Cytotoxicity against human A549 cells after 3 days by MTT assay; format: cell-based; conditions: human, A549 cells; read-out: MIC
A549 = assay: as §2; format: cell-based; conditions: Homo sapiens, A549, 72 h

SMILES	inhibition (INH) (Bacillus subtilis [1]) [%]	inhibition (INH) [2] [%]	inhibition (INH) (Staphylococcus aureus [3]) [%]	IC50 [4] [mg/L]	MIC [4] [mg/L]	inhibition (INH) (Bacillus subtilis [5]) [%]	inhibition (INH) (Pseudomonas fluorescens [6]) [%]	inhibition (INH) (Escherichia coli [7]) [%]	IC50 [8] [mg/L]	MCC at 120 h [8] [µg/mL]	inhibition (INH) (Escherichia coli [9]) [%]	inhibition (INH) (Staphylococcus aureus [10]) [%]	inhibition (INH) (Escherichia coli [11]) [%]	inhibition (INH) (Bacillus subtilis [12]) [%]	inhibition (INH) [13] [%]	inhibition (INH) [14] [%]	IC50 [15] [mg/L]	MCC at 120 h [15] [µg/mL]	inhibition (INH) (Pseudomonas fluorescens [16]) [%]	inhibition (INH) [17] [%]	further results
Cc1cnc(C(=O)NN2C(=O)CS[C@H]2c2ccc(N(C)C)cc2)cn1	3.26	23.39	22.9	2.31 (≈ 6.46 µM)	28.4 (≈ 79.5 µM)	2.71	12.03	46.74	> 100	> 100	28.08	34.87	35.59	5.9	91.72	65.91	> 100	> 100	29.04	9.803	MCC at 96 h [18]: > 100 µg/mL; IC50 (MCF7): > 100 mg/L; inhibition (INH) (Staphylococcus aureus [19]): 27.85%; inhibition (INH) [20]: -19.7482%; inhibition (INH) [21]: 60.23%; inhibition (INH) (Pseudomonas fluorescens [22]): 21.18%; MCC at 72 h [23]: > 100 µg/mL; IC50 (A549): > 100 mg/L
O=C(NN1C(=O)CS[C@@H]1c1ccc(Cl)cc1)c1cnccn1	17.44	-1.593	-47.91	1.09 (≈ 3.26 µM)	28.8 (≈ 86.1 µM)	9.6	8.12	51.04	> 100	> 100	38.71	8.74	-35.07	-13.1	91.2	66.53	> 100	> 100	3.658	-6.521	MCC at 96 h [18]: > 100 µg/mL; IC50 (MCF7): > 100 mg/L; inhibition (INH) (Staphylococcus aureus [19]): 12.54%; inhibition (INH) [20]: 41.55%; inhibition (INH) [21]: 66.68%; inhibition (INH) (Pseudomonas fluorescens [22]): 14.72%; MCC at 72 h [23]: > 100 µg/mL; IC50 (A549): > 100 mg/L
CCOc1cc([C@@H]2SCC(=O)N2NC(=O)c2cnc(C)cn2)ccc1O	16.07	7.269	32.72	0.337 (≈ 0.9 µM)	26.6 (≈ 70.9 µM)	15.08	12.73	29.15	> 100	> 100	16.57	-16.05	-27.76	21.36	90.6	86.08	> 100	> 100	12.75	28.89	MCC at 96 h [18]: > 100 µg/mL; IC50 (MCF7): > 100 mg/L; inhibition (INH) (Staphylococcus aureus [19]): -12.53%; inhibition (INH) [20]: 1.412%; inhibition (INH) [21]: 78.71%; inhibition (INH) (Pseudomonas fluorescens [22]): 11.17%; MCC at 72 h [23]: > 100 µg/mL; IC50 (A549): > 100 mg/L
COc1cc([C@@H]2SCC(=O)N2NC(=O)c2cnc(C)cn2)ccc1O	19.67	-19.0256	-0.17	0.997 (≈ 2.77 µM)	27.9 (≈ 77.3 µM)	8.59	-2.64	-53.27	86.9 (≈ 241 µM)	> 100	-54.14	42.47	33.04	14.34	91.2	70.7	> 100	> 100	33.16	33.4	MCC at 96 h [18]: > 100 µg/mL; IC50 (MCF7): 70.2 mg/L (≈ 195 µM); inhibition (INH) (Staphylococcus aureus [19]): 23.58%; inhibition (INH) [20]: -19.102%; inhibition (INH) [21]: 66.03%; inhibition (INH) (Pseudomonas fluorescens [22]): 47.41%; MCC at 72 h [23]: > 100 µg/mL; IC50 (A549): 62.3 mg/L (≈ 173 µM)
Cc1cnc(C(=O)NN2C(=O)CS[C@@H]2c2cccc([N+](=O)[O-])c2)cn1	4.11	19.6	17.56	4.29 (≈ 11.9 µM)	29 (≈ 80.7 µM)	0.21	20.43	70.21	> 100	> 100	53.08	-1.03	47.15	3.26	91.39	56.26	> 100	> 100	33.6	20.19	MCC at 96 h [18]: > 100 µg/mL; IC50 (MCF7): > 100 mg/L; inhibition (INH) (Staphylococcus aureus [19]): 33.4%; inhibition (INH) [20]: 57.26%; inhibition (INH) [21]: 48.93%; inhibition (INH) (Pseudomonas fluorescens [22]): 42.75%; MCC at 72 h [23]: > 100 µg/mL; IC50 (A549): > 100 mg/L
Cc1cnc(C(=O)NN2C(=O)CS[C@@H]2c2ccc([N+](=O)[O-])cc2)cn1	13.11	10.44	13.12	0.528 (≈ 1.47 µM)	27.5 (≈ 76.6 µM)	22.68	26.73	62.08	> 100	> 100	37.74	9.39	56.92	21.45	91.72	73.66	> 100	> 100	7.48	42.01	MCC at 96 h [18]: > 100 µg/mL; IC50 (MCF7): > 100 mg/L; inhibition (INH) (Staphylococcus aureus [19]): -8.13%; inhibition (INH) [20]: 57.99%; inhibition (INH) [21]: 72.31%; inhibition (INH) (Pseudomonas fluorescens [22]): 22.82%; MCC at 72 h [23]: > 100 µg/mL; IC50 (A549): > 100 mg/L
